Source: patent US20080221134A1, “8-ALKYNYLXANTHINES AND DERIVATIVES” (priority 2006, published 2008)
Entries after “also recorded” stand apart in the source; their conditions may differ.

What was measured:
[1] = system: Reserpine induced catalepsy; experiment: Acute Reserpine induced catalepsy test; type: in vivo, rat; conditions: for effect on catalepsy time in acute Reserpine induced catalepsy model: i.p. in DMSO, 0.1-10 mg/kg; for maximum catalepsy values after Reserpine treatment / median catalepsy values after Reserpine treatment: vs only Reserpine-treated animals
Description: (§1) Animals were administered with Reserpine or CGS-21680 according to methods known to the skilled person in the art. These models and procedures are e.g. described by Ferré S. et al., Neurosci. Let., 1991, 130, 162; Ferré S. et al., Neuroscience, 1992, 51, 501; Kafka S. H. et al., Eur. J. Pharmacol., 1996, 295, 147; Rimondini R. et al., Neuropsychopharmacology, 1997, 17, 82 and are herein incorporated by reference. In the acute CGS-21680 induced catalepsy model (CGS model) the test compounds (TC, compounds according to the present invention) and CGS-21680 (i.p. 2 mg/kg) were administered 60 minutes before the start of the catalepsy bar measurement and behavioural testing described below (see also FIG. 1). In the acute Reserpine induced catalepsy model (RES model Resperine (subcutaneously, 3 mg/kg) was injected 24 h prior to the test compound application. Catalepsy bar measurement took place 60 minutes after test compound application (see FIG. 1). Test compounds were administered i.p. in DMSO in following doses (mg/kg): 0.1, 0.3, 1, 3, 10.
(§2) Dimethylsulfoxide (DMSO) was used as vehicle for the test compounds and Reserpine. Reserpine was dissolved in DMSO in a concentration of 3 mg/ml. A 10% (w/v) Cyclodextrin solution was used as vehicle for CGS-21680. CGS 21680 was dissolved in 10% (w/v) Cyclodextrine in a concentration of 2 mg/ml.
Apomorphine was used as a reference compound in the Reserpine induced catalepsy model. Apomorphine injection solution was diluted with purified water to a concentration of 0.3 mg/ml. The solution was administered subcutaneously (s.c.) in a volume of 1 ml/kg (0.3 mg/kg) 20 minutes before the begin of testing after Reserpine pre-treatment (25 hours prior to testing).
The catalepsy bar after Reserpine administration was measured (CAT) as follows: The rat was placed with its forepaws on a log of wood. […] The animal was tested for three trials and the time for each trial was noted. The following parameters were calculated: maximum time to descend (s) and median time to descend (s). […]
(§3) All statistical tests were performed two tailed with a value of p<0.05 considered as significant.
(§4) To assess the effects of CGS-21680 and Reserpine pre-treatment compared to vehicle treated controls statistical comparisons between the test groups were performed using a U test statistic.
To assess the effects of test compounds on CGS-21680 and Reserpine pre-treated animals correlation analyses including animals from test groups and the respective test compound-treated groups were performed.
Additionally, parametric and non-parametric comparisons for the median catalepsy measure were performed to assess the reliability of the method. In case of parametric testing a GLM analyses was performed including animals from a control group (only vehicle treated animals) and the respective test compound-treated groups with dose as a categorical factor. In case of a significant result, a Dunnett's post hoc test was performed between the according test compound groups and a control group as reference group. In case of non-parametric testing a Kruskal-Wallis H-test was performed including animals from a control group and the respective test compound groups. In case of a significant result single U-test comparisons were performed between a control group and the groups treated with different doses of the test compound.

[2] = system: CGS-21680 induced catalepsy; experiment: Acute CGS-21680 induced catalepsy test; type: in vivo, rat; conditions: for effect on catalepsy time in acute CGS-21680 induced catalepsy model: i.p. in DMSO, 0.1-10 mg/kg
Description: as §1, §2
Caffeine was used as a reference compound in the CGS-21680 induced catalepsy model. A caffeine solution was prepared with water for injection purposes to a concentration of 30 mg/ml. The solution was administered intraperitoneally in a volume of 1 ml/kg (30 mg/kg) 30 minutes before the beginning of testing and after CGS-21680 pre-treatment (1 hour prior to testing).
The catalepsy bar after CGS-21680 administration was measured (CAT) as follows: The rat was placed with its forepaws on a log of wood. […] If the animal descended faster than 1 second, the trial was regarded as invalid. If more than 20 trials were rated as invalid, the values of all uncompleted trials were noted as 0. The animal was tested until five trials had been completed and the time for each trial was noted. Only the values of the last three trials were used for the analysis. The following parameters were calculated: maximum time to descend (s) and median time to descend (s).
Behavioural observation (BO) included the measurement of the body tone, inclined plane and grip strength.
The rat is taken in the hand of the observer and the animal's body tone is rated as normal, soft or hard. The rating is performed immediately after taking the animal from its home cage before performance of catalepsy testing. The following parameters were calculated: mean occurrence of hard body tone and mean occurrence of soft body tone.
The rat is horizontally placed to an inclined plane for a maximum time of 30 seconds. Time to reach bottom or top is measured. […] The test is performed after catalepsy testing. Time to leave the inclined plane(s) was measured.
The rat is put on a grip and the observer pulls the animal back on his tail. The strength (fore paws and hind paws) by which it holds on the grid is scored as grasping and pulling, grasping without pulling or no grasping. The test is performed after the inclined plane test. The following parameters were calculated: mean score of fore paw grip strength and mean score of hind paw grip strength.
as §3, §4
To assess the effects of test compounds on CGS-21680 and Reserpine pre-treated animals correlation analyses including animals from test groups and the respective test compound-treated groups were performed. […]

[3] = vs only CGS-21680-treated animals

SMILES	effect on catalepsy time in acute Reserpine induced catalepsy model [1]	maximum catalepsy values after Reserpine treatment [1]	median catalepsy values after Reserpine treatment [1]	effect on catalepsy time in acute CGS-21680 induced catalepsy model [2]	grip strength after CGS-21680 treatment [2, 3]	hard body tone after CGS-21680 treatment [2, 3]	maximum catalepsy values after CGS-21680 treatment [2, 3]	median catalepsy values after CGS-21680 treatment [2, 3]	soft body tone after CGS-21680 treatment [2, 3]	any other parameter measured after CGS-21680 treatment ([2]; parameters other than body tone)
C#CCn1c(=O)c2c(nc(C#Cc3ccc(OC)c(OC)c3)n2C)n(CC)c1=O [test compound 1, 3-ethyl-8-(3,4-dimethoxyphenylethynyl)-7-methyl-1-prop-2-ynyl-3,7-dihydropurine-2,6-dione]	significantly reduced catalepsy time; also recorded: significant reduction of catalepsy time	only weakly reduced	significantly reduced	significantly reduced catalepsy time; also recorded: significant reduction of catalepsy time; also recorded: significant effects	higher amount of grip strength	significantly increased	decreased	decreased	decreased	–
C#CCn1c(=O)c2c(nc(C#Cc3ccc(OC)c(OC)c3)n2C)n(CCCO)c1=O [test compound 2, 3-(3-hydroxypropyl)-8-(3,4-dimethoxyphenylethynyl)-7-methyl-1-prop-2-ynyl-3,7-dihydropurine-2,6-dione]	reduced catalepsy time; also recorded: significant reduction of catalepsy time	significantly decreased	significantly decreased	reduced catalepsy time; also recorded: reduction of catalepsy time; also recorded: significant effects	–	significantly increased	–	–	decreased	no significant effects
